Results from a melting point compilation (Tetko et al.; mined from patent text by program, amines drawn as free bases though some values may be those of a salt).

melting point [°C]	Structure (SMILES)
60 to 63	COC(=O)c1ncc(Cl)nc1Cl
250 to 252	Cn1c(S)nc(-c2ccncc2)cc1=O
144	COc1ccc(N)cc1NCC(N)=O
213 to 215	Cc1cn(-c2cc(NC(=O)c3ccc(Cl)c(C#Cc4ccc(NC5CC5)nn4)c3)cc(C(F)(F)F)c2)cn1
> 250	CN1CCN(c2ccnc3c(NC(=O)c4c(Cl)cccc4Cl)cc(Cl)cc23)C1=O
> 210	Nc1nccc(-c2c[nH]c3nccc(C#Cc4ccccc4)c23)n1
198 to 200	Cc1nc(N)sc1-c1ccnc(CC2CC2)n1
77 to 80	CC(c1cc(C(C)(C)C#N)cc(C(C)(C)C#N)c1)n1ccnc1 (stereo not given)
158 to 161	Cc1ccc(-c2cn(C)cc(-c3cccc(C(F)(F)F)c3)c2=O)cc1Br
204 to 206	Cc1c(N2CC[C@H](N(C)C)C2)c(F)c(N)c2c(=O)c(C(=O)O)cn(C3CC3)c12
166 to 168	Cc1ccc(C2(CNC(=O)Nc3c(C(C)C)cccc3C(C)C)CCC2)cc1
173 to 176	COC(=O)c1sc(Br)cc1N
144 to 149	CC(C)c1ccc(C(=O)Cc2ccccc2C(F)(F)F)c(C(C)C)c1OS(N)(=O)=O
142 to 143	C=Cn1nnn(-c2cc(OC)c(Cl)cc2Cl)c1=O
91 to 103	COc1cc(C2CCN(C[C@@H](C)O)CC2)ccc1Nc1ncc2ccc(-c3ccccc3N(C)S(C)(=O)=O)n2n1
105	N#Cc1ccc(C(=C2C3CC4CC(C3)CC2C4)c2nc[nH]n2)cc1

melting point [°C]	Structure (SMILES)
195	COc1cc(OC)c([N+](=O)[O-])nc1N
96 to 97	Cc1nn(C)c2c1N=C(C(C)C)N1CC(C)N=C21 (stereo not given)
260	Cc1nccn1-c1cccc(C2=Nc3cc(O)c(-c4ccc(F)cc4)cc3NC(=O)C2)c1
130 to 131	Cc1nnc(-c2ccc3occ(-c4cc(F)ccc4Cl)c3c2)o1
230	CSc1nc2ccc(Br)cc2c(=O)[nH]1
177 to 178	COc1ccc(C(=O)Nc2cc(-c3c(-c4cccc(C)c4)nc4cccnn34)ccn2)cc1
77 to 79	Cc1cc2cc(OCCCCBr)ccc2[nH]1
191 to 193	COc1cc(-c2nc(NC(C)C)c3c(C)c(C#N)sc3n2)cc(OC)c1OC
125 to 126	Cc1ccc(Nc2nc3ccccc3c3[nH]c(C4CCCC4)nc23)cc1
90 to 98	N#CCCCCCN1CCc2c(c3cc(F)ccc3n2-c2ccc(F)cc2)C1
226 to 228	O=C(CN1c2nc(-c3ccncc3)cc(=O)n2CCC1c1ccccc1)c1ccc2ccccc2c1 (stereo not given)
178 to 180	O=C(O)COc1ccc2c(-c3ccccc3F)noc2c1I
234	CCCCc1nc(=O)n2nc(-c3ccccc3)cc2[nH]1
122 to 124	CCN(CC)C(=O)c1ccc2cc(C(=O)O)ccc2c1
173 to 175	COC(C)COC(=O)Nc1ccc(C2=NNC(=O)CC2C)cc1 (stereo not given)
51 to 53	CSc1cc(OCCC[Si](C)(C)C)c(Cl)cc1[N+](=O)[O-]

The next lines start with the molecule.

Structure (SMILES)	melting point [°C]
COc1ccc([C@H](Sc2cc(Cc3ccccc3)ccc2N)[C@@H](O)C(=O)O)cc1	155 to 158
CN(C)C1CCN(c2nc(N3CCc4ccccc4C3)c3ncnc(N4CCOCC4)c3n2)CC1	49 to 53
Fc1ccc2c(C3CCN(CCN4CCOCC4)CC3)noc2c1	131 to 132
CCOC(=O)C(Br)=NNc1ccccc1	82 to 83
COc1cc2c3c(c1O)-c1ccc(Cl)cc1CC3N(C)CC2 (stereo not given)	155 to 157
O=C(O)C1=Cc2cc(Cl)c(Oc3cccnc3)cc2OC1C(F)(F)F (stereo not given)	238 to 239
CC(=O)N1CCC2(CC1)Nc1cc(C)ccc1-n1cccc12	212 to 213
O=C(NCc1cccs1)C1CCCCC1	105
CC(C)(C)c1ccc(Cn2ccc3ccc(-c4ccc(C(F)(F)F)cc4)cc32)cc1	134 to 135
CC(C)(C)n1nnc(NC(=O)C(c2ccccc2)c2ccccc2)n1	191 to 192
O=Cc1cccc2cncn12	138 to 140
CCNC(=O)N(C)C1c2ccccc2Oc2ccccc21	139 to 141
N#Cc1nn(-c2c(Cl)cc(C(F)(F)F)cc2Cl)c(Br)c1O	145 to 151
CCOC(=O)C1(CC(=O)Nc2cccnc2)N=C(c2ccc(Cl)cc2)c2c(sc(C)c2C)-n2c(C)nnc21 (stereo not given)	133 to 135
CCCCOC(=O)NC1CCN(c2c(F)cc3c(=O)c(C(=O)O)cn(C4CC4)c3c2F)C1 (stereo not given)	228 to 230
O=C(Nc1cccc(-c2ccccc2)c1)Nc1ccccc1CCO	196 to 198
CCOc1nn(-c2ccc(C(F)(F)F)cc2)cc1CCCOc1cccc(CC(=O)O)c1	108 to 109
OC1CSC(Oc2cncc(-c3ccc(F)cc3)c2)C(O)C1O (stereo not given)	208 to 209
CCc1ncnc(NC2CCc3cc(O)ccc3C2)c1Cl (stereo not given)	178
O=[N+]([O-])c1ccc(N2CCN(c3cc(N4CCCC4)nc(N4CCCC4)n3)CC2)cc1	200 to 201
Cc1ccc(S(=O)(=O)ON=C(CCN2C(=O)c3ccccc3C2=O)n2nc(C)c(Cl)c2N)cc1	168 to 171
C[C@@H](COS(C)(=O)=O)NS(=O)(=O)c1ccccc1[N+](=O)[O-]	125 to 126

Structure (SMILES)	melting point [°C]
O=C(O)CCCCCCC1C(=O)NC(=O)N1CCCCCc1ccccc1 (stereo not given)	90 to 92
CC(=O)OC1CCC2(C)C(CCC3C4CC(C)C(O)(C(C)=O)C4(C)CCC32F)C1 (stereo not given)	150
O=C1C=CCC2=C3C(=CCN3C13COc1cc4c(cc13)OCO4)CCC2 (stereo not given)	176 to 177
Cn1cc(-c2ccc(Cl)cc2)c(=O)c(-c2cccc(C(F)(F)F)c2)c1	153 to 155
CC1(C)CC(=O)CC(C)(C)N1C#N	75 to 76
O=C1CC(=CCl)c2c(O)cc(O)cc2O1	228 to 230
CCCCCCCCCCCCCCCCSCC(COS(C)(=O)=O)NC(=O)OC (stereo not given)	82 to 83
Cc1cc(CCCCCOc2ccc(C(N)=S)cc2)on1	156 to 158
CCOC(=O)C(Cc1ccc(C(F)(F)F)cc1)C(=O)c1ccc(F)cc1 (stereo not given)	56 to 57
Cc1cc(N2C=CNC2N)ccn1 (stereo not given)	167
CN(C)C(=O)C1CCCc2c1c1ccccc1n2Cc1ccccc1 (stereo not given)	208 to 210
Cn1nc(CO)nc1NCC(O)CCOc1cccc(CN2CCCCC2)c1 (stereo not given)	148
Cc1ccn(-c2cncc(F)c2)n1	70 to 72
CC(C)(C)c1ccccc1N1CCN(C(=O)c2ccccn2)CC1	140 to 145
CCCCCCCCCCCCNC(N)=O	105 to 107
O=C(NC1N=C(c2ccccc2F)c2ccccc2-n2cnnc21)c1cc2ccccc2[nH]1 (stereo not given)	291
O=C(O)c1ccc(Cl)c2c1OC(F)(F)O2	185
CC(C)C(C)C=CC(C)C1CCC2C1(C)CCC1C23C=CC2(CC(O)CCC12C)OO3 (stereo not given)	165 to 169
CC(=O)Nc1ccnn(C)c1=O	152 to 153
C=CCN1CC(=O)C(C#N)=C1N	275 to 278
CCOC(=O)C(C)(C)Oc1ccc(C=CC(=O)c2ccccc2)cc1	68 to 70
